Reference: patent EP0226973A2, “4-Bis(2'-hydroxyethyl)amino-1-(3'-hydroxypropyl)amino-2-nitro-benzene, process for its preparation and means for dyeing hair” (Wella Aktiengesellschaft, priority 1985, dated 1987)
≈ marks a conversion by molar mass, not a printed value. Like-named read-outs stand apart in the source and are kept apart here.

Experiments:
Human-Lymphozyten = test: Human lymphocyte mutagenicity test; assay type: cell-based; details: Human-Lymphozytentest
Solubility in water = assay type: physicochemical; details: read-out: Löslichkeit in Wasser
Ames mutagenicity test = assay type: cell-based; details: Mutagenitätstest nach Ames
[1] = Toxicological properties (general statement)

## CNc1ccc(N(CCO)CCO)cc1[N+](=O)[O-] [Farbstoff (V), 4-Bis(2′-hydroxyethyl)amino-l-methylamino-2-nitro-benzols]
Human-Lymphozyten
  mutagene Wirkung: im Gegensatz zu Farbstoff (V)
Solubility in water
  solubility: ~5000 µg/mL (≈ 19.6 mM)
Ames mutagenicity test
  mutagene Wirkung: im Gegensatz zu Farbstoff (V)
[1]
  toxikologische Eigenschaften: sehr unbefriedigend

## O=[N+]([O-])c1cc(N(CCO)CCO)ccc1NCCCO [Farbstoff (I), 4-Bis(2′-hydroxyethyl)amino-l-(3′-hydroxypropyl)amino-2-nitro-benzol]
Human-Lymphozyten
  mutagene Wirkung: keine mutagene Wirkung
Solubility in water
  solubility: ~20000 µg/mL (≈ 66.8 mM)
Ames mutagenicity test
  mutagene Wirkung: keine mutagene Wirkung

## CCNc1ccc(N(CCO)CCO)cc1[N+](=O)[O-] [Farbstoff (III), 4-Bis(2′-hydroxyethyl)amino-l-ethylamino-2-nitro-benzol]
Solubility in water; ohne Zusatz von Lösungsvermittlern
  solubility: < 1500 µg/mL
